In patent US10865208B2, “ATG7 inhibitors and the uses thereof” (Millennium Pharmaceuticals, Inc., priority 2016, dated 2020):
Values belong to the molecule of their own block, whether it stands above or below them.

Target: recombinant human His-ATG7 enzyme (Homo sapiens (Human), UniProt O95352)
Test: ATG7 Enzyme Assay (HTRF/FRET, ATG3-GST and Flag-Gabarap)
Format: biochemical
Details: for inhibition at 0.111 µM: Concentration 0.111 μM
In short: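 0.15 nM His-ATG7 was reacted with 5 nM ATG3-GST, 5 nM Flag-Gabarap and 10 μM ATP in HEPES pH 7.5 containing MgCl2, GSH and TCEP for 105 min at 24° C, then stopped with EDTA/KF. Eu-anti-Flag and anti-GST-APC HTRF was read after 2 h. Results are given as single-concentration % inhibition or IC50.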

recombinant human His-ATG7 enzyme, sequence (O95352 whole entry): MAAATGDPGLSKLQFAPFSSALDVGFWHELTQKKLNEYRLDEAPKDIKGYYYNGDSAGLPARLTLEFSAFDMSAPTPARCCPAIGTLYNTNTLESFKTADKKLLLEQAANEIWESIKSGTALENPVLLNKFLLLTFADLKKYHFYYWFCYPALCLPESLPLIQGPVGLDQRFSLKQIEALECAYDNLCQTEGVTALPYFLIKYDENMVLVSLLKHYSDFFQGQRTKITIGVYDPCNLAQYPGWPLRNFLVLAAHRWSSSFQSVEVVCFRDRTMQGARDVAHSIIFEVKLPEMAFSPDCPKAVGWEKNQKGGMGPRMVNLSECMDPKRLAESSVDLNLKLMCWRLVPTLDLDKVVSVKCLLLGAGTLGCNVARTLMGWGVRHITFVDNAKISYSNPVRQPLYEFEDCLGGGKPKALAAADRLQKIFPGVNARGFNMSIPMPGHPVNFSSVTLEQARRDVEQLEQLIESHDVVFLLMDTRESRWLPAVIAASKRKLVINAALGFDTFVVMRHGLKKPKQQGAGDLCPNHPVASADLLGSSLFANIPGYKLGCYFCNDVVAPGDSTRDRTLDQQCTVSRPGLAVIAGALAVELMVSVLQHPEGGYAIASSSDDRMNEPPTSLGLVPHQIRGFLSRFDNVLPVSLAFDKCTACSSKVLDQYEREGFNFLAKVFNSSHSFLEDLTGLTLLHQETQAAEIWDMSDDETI

SMILES: Nc1ncnc2c1c(SCc1ccccn1)nn2[C@@H]1O[C@H](COS(N)(=O)=O)[C@@H](O)[C@@H]1F [Compound I-119, [(2R,3R,4S,5R)-5-{4-amino-3-[(pyridin-2-ylmethyl)sulfanyl]-1H-pyrazolo[3,4-d]pyrimidin-1-yl}-4-fluoro-3-hydroxytetrahydrofuran-2-yl]methyl sulfamate]
IC50: 50 to 100 nM | inhibition at 0.111 µM (read-out: Percent Inhibition): 65%

SMILES: CCC(CC)Sc1nn([C@@H]2O[C@H](COS(N)(=O)=O)[C@@H](O)[C@@H]2F)c2ncnc(N)c12 [Compound I-120, {(2R,3R,4S,5R)-5-[4-amino-3-(pentan-3-ylsulfanyl)-1H-pyrazolo[3,4-d]pyrimidin-1-yl]-4-fluoro-3-hydroxytetrahydrofuran-2-yl}methyl sulfamate]
IC50: 100 to 500 nM | inhibition at 0.111 µM (read-out: Percent Inhibition): 46%

SMILES: Nc1ncnc2c1c(SCc1cccnc1)nn2[C@@H]1O[C@H](COS(N)(=O)=O)[C@@H](O)[C@@H]1F [Compound I-121, [(2R,3R,4S,5R)-5-{4-amino-3-[(pyridin-3-ylmethyl)sulfanyl]-1H-pyrazolo[3,4-d]pyrimidin-1-yl}-4-fluoro-3-hydroxytetrahydrofuran-2-yl]methyl sulfamate]
IC50: 50 to 100 nM | inhibition at 0.111 µM (read-out: Percent Inhibition): 65%

SMILES: Nc1ncnc2c1c(SC1CCCCC1)nn2[C@@H]1O[C@H](COS(N)(=O)=O)[C@@H](O)[C@@H]1F [Compound I-122, {(2R,3R,4S,5R)-5-[4-amino-3-(cyclohexylsulfanyl)-1H-pyrazolo[3,4-d]pyrimidin-1-yl]-4-fluoro-3-hydroxytetrahydrofuran-2-yl}methyl sulfamate]
IC50: 20 to 50 nM | inhibition at 0.111 µM (read-out: Percent Inhibition): 80%

SMILES: Nc1ncnc2c1c(SCc1ccncc1)nn2[C@@H]1O[C@H](COS(N)(=O)=O)[C@@H](O)[C@@H]1F [Compound I-124, [(2R,3R,4S,5R)-5-{4-amino-3-[(pyridin-4-ylmethyl)sulfanyl]-1H-pyrazolo[3,4-d]pyrimidin-1-yl}-4-fluoro-3-hydroxytetrahydrofuran-2-yl]methyl sulfamate]
IC50: 50 to 100 nM | inhibition at 0.111 µM (read-out: Percent Inhibition): 52%

SMILES: Cn1ccnc1Sc1nn([C@@H]2O[C@H](COS(N)(=O)=O)[C@@H](O)[C@@H]2F)c2ncnc(N)c12 [Compound I-125, [(2R,3R,4S,5R)-5-{4-amino-3-[(1-methyl-1H-imidazol-2-yl)sulfanyl]-1H-pyrazolo[3,4-d]pyrimidin-1-yl}-4-fluoro-3-hydroxytetrahydrofuran-2-yl]methyl sulfamate]
IC50: 100 to 500 nM | inhibition at 0.111 µM (read-out: Percent Inhibition): 37%

SMILES: Nc1ncnc2c1c(Sc1ccc(F)cc1)nn2[C@@H]1O[C@H](COS(N)(=O)=O)[C@@H](O)[C@@H]1F [Compound I-126, [(2R,3R,4S,5R)-5-{4-amino-3-[(4-fluorophenyl)sulfanyl]-1H-pyrazolo[3,4-d]pyrimidin-1-yl}-4-fluoro-3-hydroxytetrahydrofuran-2-yl]methyl sulfamate]
IC50: 20 to 50 nM | inhibition at 0.111 µM (read-out: Percent Inhibition): 71%

SMILES: Nc1ncnc2c1c(SCc1cccnn1)nn2[C@@H]1O[C@H](COS(N)(=O)=O)[C@@H](O)[C@@H]1F [Compound I-127, [(2R,3R,4S,5R)-5-{4-amino-3-[(pyridazin-3-ylmethyl)sulfanyl]-1H-pyrazolo[3,4-d]pyrimidin-1-yl}-4-fluoro-3-hydroxytetrahydrofuran-2-yl]methyl sulfamate]
IC50: 50 to 100 nM | inhibition at 0.111 µM (read-out: Percent Inhibition): 61%

SMILES: Nc1ncnc2c1c(SCc1ccnnc1)nn2[C@@H]1O[C@H](COS(N)(=O)=O)[C@@H](O)[C@@H]1F [Compound I-128, [(2R,3R,4S,5R)-5-{4-amino-3-[(pyridazin-4-ylmethyl)sulfanyl]-1H-pyrazolo[3,4-d]pyrimidin-1-yl}-4-fluoro-3-hydroxytetrahydrofuran-2-yl]methyl sulfamate]
IC50: 50 to 100 nM | inhibition at 0.111 µM (read-out: Percent Inhibition): 52%

SMILES: CC(C)[C@@H](C)Sc1nn([C@@H]2O[C@H](COS(N)(=O)=O)[C@@H](O)[C@@H]2F)c2ncnc(N)c12 [Compound I-129, [(2R,3R,4S,5R)-5-(4-amino-3-{[(2R)-3-methylbutan-2-yl]sulfanyl}-1H-pyrazolo[3,4-d]pyrimidin-1-yl)-4-fluoro-3-hydroxytetrahydrofuran-2-yl]methyl sulfamate]
IC50: 100 to 500 nM | inhibition at 0.111 µM (read-out: Percent Inhibition): 48%

SMILES: N#Cc1ccnc(Sc2nn([C@@H]3O[C@H](COS(N)(=O)=O)[C@@H](O)[C@@H]3F)c3ncnc(N)c23)c1 [Compound I-130, [(2R,3R,4S,5R)-5-{4-amino-3-[(4-cyanopyridin-2-yl)sulfanyl]-1H-pyrazolo[3,4-d]pyrimidin-1-yl}-4-fluoro-3-hydroxytetrahydrofuran-2-yl]methyl sulfamate]
IC50: 20 to 50 nM | inhibition at 0.111 µM (read-out: Percent Inhibition): 77%

SMILES: Nc1ncnc2c1c(Sc1ccc(C(F)(F)F)cc1)nn2[C@@H]1O[C@H](COS(N)(=O)=O)[C@@H](O)[C@@H]1F [Compound I-132, [(2R,3R,4S,5R)-5-(4-amino-3-{[4-(trifluoromethyl)phenyl]sulfanyl}-1H-pyrazolo[3,4-d]pyrimidin-1-yl)-4-fluoro-3-hydroxytetrahydrofuran-2-yl]methyl sulfamate]
IC50: 50 to 100 nM | inhibition at 0.111 µM (read-out: Percent Inhibition): 60%

Next, values leading:

IC50: 20 to 50 nM | inhibition at 0.111 µM (read-out: Percent Inhibition): 67%
SMILES: Nc1ncnc2c1c(Sc1ccc(Cl)cc1)nn2[C@@H]1O[C@H](COS(N)(=O)=O)[C@@H](O)[C@@H]1F [Compound I-133, [(2R,3R,4S,5R)-5-{4-amino-3-[(4-chlorophenyl)sulfanyl]-1H-pyrazolo[3,4-d]pyrimidin-1-yl}-4-fluoro-3-hydroxytetrahydrofuran-2-yl]methyl sulfamate]

IC50: 100 to 500 nM | inhibition at 0.111 µM (read-out: Percent Inhibition): 37%
SMILES: Cn1cncc1Sc1nn([C@@H]2O[C@H](COS(N)(=O)=O)[C@@H](O)[C@@H]2F)c2ncnc(N)c12 [Compound I-134, [(2R,3R,4S,5R)-5-{4-amino-3-[(1-methyl-1H-imidazol-5-yl)sulfanyl]-1H-pyrazolo[3,4-d]pyrimidin-1-yl}-4-fluoro-3-hydroxytetrahydrofuran-2-yl]methyl Sulfamate]

IC50: 20 to 50 nM | inhibition at 0.111 µM (read-out: Percent Inhibition): 82%
SMILES: Nc1ncnc2c1c(SCC1CC1)nn2[C@@H]1O[C@H](COS(N)(=O)=O)[C@@H](O)[C@@H]1F [Compound I-135, [(2R,3R,4S,5R)-5-{4-amino-3-[(cyclopropylmethyl)sulfanyl]-1H-pyrazolo[3,4-d]pyrimidin-1-yl}-4-fluoro-3-hydroxytetrahydrofuran-2-yl]methyl sulfamate]

IC50: 20 to 50 nM | inhibition at 0.111 µM (read-out: Percent Inhibition): 80%
SMILES: Cn1cnc(Sc2nn([C@@H]3O[C@H](COS(N)(=O)=O)[C@@H](O)[C@@H]3F)c3ncnc(N)c23)c1 [Compound I-137, [(2R,3R,4S,5R)-5-{4-amino-3-[(1-methyl-1H-imidazol-4-yl)sulfanyl]-1H-pyrazolo[3,4-d]pyrimidin-1-yl}-4-fluoro-3-hydroxytetrahydrofuran-2-yl]methyl sulfamate]

IC50: 50 to 100 nM | inhibition at 0.111 µM (read-out: Percent Inhibition): 64%
SMILES: Nc1ncnc2c1c(Sc1cccnc1)nn2[C@@H]1O[C@H](COS(N)(=O)=O)[C@@H](O)[C@@H]1F [Compound I-138, {(2R,3R,4S,5R)-5-[4-amino-3-(pyridin-3-ylsulfanyl)-1H-pyrazolo[3,4-d]pyrimidin-1-yl]-4-fluoro-3-hydroxytetrahydrofuran-2-yl}methyl sulfamate]

IC50: 20 to 50 nM | inhibition at 0.111 µM (read-out: Percent Inhibition): 84%
SMILES: CC(C)Sc1nn([C@@H]2O[C@H](COS(N)(=O)=O)[C@@H](O)[C@@H]2F)c2ncnc(N)c12 [Compound I-139, {(2R,3R,4S,5R)-5-[4-amino-3-(isopropylsulfanyl)-1H-pyrazolo[3,4-d]pyrimidin-1-yl]-4-fluoro-3-hydroxytetrahydrofuran-2-yl}methyl Sulfamate]

IC50: 20 to 50 nM | inhibition at 0.111 µM (read-out: Percent Inhibition): 75%
SMILES: CC1CC1CSc1nn([C@@H]2O[C@H](COS(N)(=O)=O)[C@@H](O)[C@@H]2F)c2ncnc(N)c12 (stereo partly drawn) [Compound I-140]

IC50: 20 to 50 nM | inhibition at 0.123 µM (Concentration 0.123 μM, read-out: Percent Inhibition): 76%
SMILES: Cc1cccc(Sc2nn([C@@H]3O[C@H](COS(N)(=O)=O)[C@@H](O)[C@@H]3F)c3ncnc(N)c23)c1 [Compound I-141, [(2R,3R,4S,5R)-5-{4-amino-3-[(3-methylphenyl)sulfanyl]-1H-pyrazolo[3,4-d]pyrimidin-1-yl}-4-fluoro-3-hydroxytetrahydrofuran-2-yl]methyl Sulfamate]

IC50: 50 to 100 nM | inhibition at 0.111 µM (read-out: Percent Inhibition): 57%
SMILES: Nc1ncnc2c1c(SC(F)(F)F)nn2[C@@H]1O[C@H](COS(N)(=O)=O)[C@@H](O)[C@@H]1F [Compound I-142, [(2R,3R,4S,5R)-5-{4-amino-3-[(trifluoromethyl)sulfanyl]-1H-pyrazolo[3,4-d]pyrimidin-1-yl}-4-fluoro-3-hydroxytetrahydrofuran-2-yl]methyl sulfamate]

IC50: 50 to 100 nM | inhibition at 0.111 µM (read-out: Percent Inhibition): 68%
SMILES: Nc1ncnc2c1c(Sc1ccc(C(F)(F)F)cn1)nn2[C@@H]1O[C@H](COS(N)(=O)=O)[C@@H](O)[C@@H]1F [Compound I-143, [(2R,3R,4S,5R)-5-(4-amino-3-{[5-(trifluoromethyl)pyridin-2-yl]sulfanyl}-1H-pyrazolo[3,4-d]pyrimidin-1-yl)-4-fluoro-3-hydroxytetrahydrofuran-2-yl]methyl sulfamate]

IC50: 20 to 50 nM | inhibition at 0.111 µM (read-out: Percent Inhibition): 74%
SMILES: Cn1cc(CSc2nn([C@@H]3O[C@H](COS(N)(=O)=O)[C@@H](O)[C@@H]3F)c3ncnc(N)c23)cn1 [Compound I-145, [(2R,3R,4S,5R)-5-(4-amino-3-{[(1-methyl-1H-pyrazol-4-yl)methyl]sulfanyl}-1H-pyrazolo[3,4-d]pyrimidin-1-yl)-4-fluoro-3-hydroxytetrahydrofuran-2-yl]methyl sulfamate]

IC50: 20 to 50 nM | inhibition at 0.111 µM (read-out: Percent Inhibition): 86%
SMILES: Nc1ncnc2c1c(Sc1ccc(Cl)cn1)nn2[C@@H]1O[C@H](COS(N)(=O)=O)[C@@H](O)[C@@H]1F [Compound I-146, [(2R,3R,4S,5R)-5-{4-amino-3-[(5-chloropyridin-2-yl)sulfanyl]-1H-pyrazolo[3,4-d]pyrimidin-1-yl}-4-fluoro-3-hydroxytetrahydrofuran-2-yl]methyl sulfamate]
